Experimental data published in patent US4740233A, “Substituted 1,2,4-triazolo[1,5-a]-pyrimidine-2-sulfonamides and compositions and methods of controlling undesired vegetation and suppressing the nitrification of ammonium nitrogen in soil” (The Dow Chemical Company, priority 1986, dated 1988).

Tests used:
cotton = test: Preemergent control of plant species; type: in vivo, Gossypium spp.; conditions: Gossypium hirsutum, pre-emergence, 336 h; 0.25 lb/acre; read-out: percent preemergent control
Method in brief: (§1)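 Growth reduction relative to untreated plants of the same species, assessed two weeks after treatment, defines the control value. Compositions, mostly aqueous emulsions, were deposited uniformly on seeded greenhouse soil beds at the tabulated rates, with a water-treated bed as reference.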

rape = test: Preemergent control of plant species; type: in vivo, Brassica napus; conditions: Brassica napus, pre-emergence, 336 h; 0.25 lb/acre; read-out: percent preemergent control
Method in brief: as §1

soybean = test: Preemergent control of plant species; type: in vivo, Glycine max.; conditions: Glycine max, pre-emergence, 336 h; 0.25 lb/acre; read-out: percent preemergent control
Method in brief: as §1

sugar beet = test: Preemergent control of plant species; type: in vivo, Beta saccharifera; conditions: Beta vulgaris, pre-emergence, 336 h; 0.25 lb/acre; read-out: percent preemergent control
Method in brief: as §1

jimsonweed = test: Preemergent control of plant species; type: in vivo, Datura stramonium; conditions: Datura stramonium, pre-emergence, 336 h; 0.25 lb/acre; read-out: percent preemergent control
Method in brief: as §1

annual morning glory = test: Preemergent control of plant species; type: in vivo, Ipomoea spp.; conditions: Ipomoea, pre-emergence, 336 h; 0.25 lb/acre; read-out: percent preemergent control
Method in brief: as §1

pigweed = test: Preemergent control of plant species; type: in vivo, Amaranthus spp.; conditions: Amaranthus retroflexus, pre-emergence, 336 h; 0.25 lb/acre; read-out: percent preemergent control
Protocol: (§2) The seeds of various species of plants were planted in beds of good agricultural soil in a greenhouse. A number of compositions of the present invention, generally in the nature of an aqueous emulsion, were applied at rates listed in the table so as to deposit a predetermined amount of active ingredients uniformly throughout the surface of the bed. Another seed bed was treated only with water to serve as a control. After treatment the seed beds were maintained for two weeks under greenhouse conditions conducive for good plant growth and watered as necessary. Control refers to the reduction in growth compared to the observed results of the same untreated species.

velvetleaf = test: Preemergent control of plant species; type: in vivo, Abutilon theophrasti; conditions: Abutilon theophrasti, pre-emergence, 336 h; 0.25 lb/acre; read-out: percent preemergent control
Method in brief: as §1

corn = test: Preemergent control of plant species; type: in vivo, Zea mays; conditions: Zea mays, pre-emergence, 336 h; 0.25 lb/acre; read-out: percent preemergent control
Method in brief: as §1

rice [1] = test: Preemergent control of plant species; type: in vivo, Oryza sativa; conditions: Oryza sativa, pre-emergence, 336 h; 0.25 lb/acre; read-out: percent preemergent control
Method in brief: as §1

sorghum = test: Preemergent control of plant species; type: in vivo, Sorghum vulgare; conditions: Sorghum, pre-emergence, 336 h; 0.25 lb/acre; read-out: percent preemergent control
Method in brief: as §1

wheat = test: Preemergent control of plant species; type: in vivo, Triticum aestivum; conditions: Triticum aestivum, pre-emergence, 336 h; 0.25 lb/acre; read-out: percent preemergent control
Method in brief: as §1

barnyardgrass [2] = test: Preemergent control of plant species; type: in vivo, Echinochloa crusgalli; conditions: Echinochloa crus-galli, pre-emergence, 336 h; 0.25 lb/acre; read-out: percent preemergent control
Method in brief: as §1

crabgrass = test: Preemergent control of plant species; type: in vivo, Digitaria spp.; conditions: Digitaria sanguinalis, pre-emergence, 336 h; 0.25 lb/acre; read-out: percent preemergent control
Protocol: as §2

johnson grass = test: Preemergent control of plant species; type: in vivo, Sorghum halepense; conditions: Sorghum halepense, pre-emergence, 336 h; 0.25 lb/acre; read-out: percent preemergent control
Method in brief: as §1

wild oats = test: Preemergent control of plant species; type: in vivo; conditions: Avena fatua, pre-emergence, 336 h; 0.25 lb/acre; read-out: percent preemergent control
Method in brief: as §1

yellow foxtail = test: Preemergent control of plant species; type: in vivo, Setaria lutescens; conditions: Setaria, pre-emergence, 336 h; 0.25 lb/acre; read-out: percent preemergent control
Method in brief: as §1

yellow nutsedge [3] = test: Preemergent control of plant species; type: in vivo, Cyperus esculentus; conditions: Cyperus, pre-emergence, 336 h; 0.25 lb/acre; read-out: percent preemergent control
Method in brief: as §1

rice [4] = test: Control of aquatic plant species (paddy water); type: in vivo, Oryza sativa; conditions: Oryza sativa, 216 h, nine days, read-out: Percent control; for pest or weed control at 250 g/ha: 0.25 Kg/Ha
Method in brief: (§3)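 1-2 inch plants transplanted into ~2 in soil, flooded ~1 in deep; acetone concentrate injected into floodwater, volume adjusted for target concentration; % control scored at 9 days.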

barnyardgrass [5] = test: Control of aquatic plant species (paddy water); type: in vivo, Echinochloa crusgalli; conditions: Echinochloa crus-galli, 216 h, nine days, read-out: Percent control; for pest or weed control at 250 g/ha: 0.25 Kg/Ha
Protocol: In testing for such utility, the plant species to be tested were transplanted into 16 oz. containers into about 2 inches of soil when they were in the 1-2 inch stage and then flooded to a depth of about 1 inch. An acetone concentrate of the chemical to be tested was then injected into the paddy water, the volume injected being varied as desired to provide the desired concentration. Percent control was evaluated nine days after application.

sprangletop = test: Control of aquatic plant species (paddy water); type: in vivo, Leptochloa filiformis; conditions: Leptochloa filiformis, 216 h, nine days, read-out: Percent control; for pest or weed control at 250 g/ha: 0.25 Kg/Ha
Method in brief: as §3

yellow nutsedge [6] = test: Control of aquatic plant species (paddy water); type: in vivo, Cyperus esculentus; conditions: Cyperus, 216 h, nine days, read-out: Percent control; for pest or weed control at 250 g/ha: 0.25 Kg/Ha
Method in brief: as §3

[7] = tested on: nitrification of ammonium nitrogen; test: Suppression of nitrification of ammonium nitrogen in soil; conditions: 27° C.
Method in brief: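 Soil (20 g) moistened to its 1/3 bar tension value, mixed with test chemical and incubated sealed for two weeks at 27° C. Nitrate extracted with ammonium sulfate solution and measured by nitrate-specific ion electrode; value given as % NH4-N remaining.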

Row | SMILES | plant injury at 280.212 g/ha (cotton) [%] | plant injury at 280.212 g/ha (rape) [%] | plant injury at 280.212 g/ha (soybean) [%] | plant injury at 280.212 g/ha (sugar beet) [%] | pest or weed control at 280.212 g/ha (jimsonweed) [%] | pest or weed control at 280.212 g/ha (annual morning glory) [%] | pest or weed control at 280.212 g/ha (pigweed) [%] | pest or weed control at 280.212 g/ha (velvetleaf) [%] | plant injury at 280.212 g/ha (corn) [%] | plant injury at 280.212 g/ha (rice [1]) [%] | plant injury at 280.212 g/ha (sorghum) [%] | plant injury at 280.212 g/ha (wheat) [%] | pest or weed control at 280.212 g/ha (barnyardgrass [2]) [%] | pest or weed control at 280.212 g/ha (crabgrass) [%] | pest or weed control at 280.212 g/ha (johnson grass) [%] | pest or weed control at 280.212 g/ha (wild oats) [%] | pest or weed control at 280.212 g/ha (yellow foxtail) [%] | pest or weed control at 280.212 g/ha (yellow nutsedge [3]) [%] | pest or weed control at 250 g/ha (rice [4]) [%] | % NH4-N Remaining After 2 Weeks Incubation ([7]; 1 ppm) [%] | also measured
1 | Cc1cc(C)n2nc(S(=O)(=O)Nc3ccccc3C(F)(F)F)nc2n1 [Compound 13, 5,7-Dimethyl-N-(2-trifluoromethylphenyl)-1,2,4-triazolo[1,5-a]pyrimidine-2-sulfonamide] | 95 | 98 | 95 | 98 | 70 | 90 | 95 | 95 | 80 | 95 | 98 | 20 | 95 | 80 | 95 | 10 | 90 | 98 | 97 | 89 | pest or weed control at 250 g/ha (barnyardgrass [5]): 93%; pest or weed control at 250 g/ha (sprangletop): 10%; pest or weed control at 250 g/ha (yellow nutsedge [6]): 93%; % NH4-N Remaining After 2 Weeks Incubation ([7]; 0.06 ppm): 73%; % NH4-N Remaining After 2 Weeks Incubation ([7]; 0.125 ppm): 78%; % NH4-N Remaining After 2 Weeks Incubation ([7]; 0.25 ppm): 81%; % NH4-N Remaining After 2 Weeks Incubation ([7]; 0.5 ppm): 85%
2 | Cc1cc(C)n2nc(S(=O)(=O)Nc3c(Cl)cccc3Cl)nc2n1 [Compound 22, 5,7-Dimethyl-N-(2,6-dichlorophenyl)-1,2,4-triazolo[1,5-a]pyrimidine-2-sulfonamide] | 95 | 100 | 95 | 98 | 100 | 70 | 100 | 98 | 50 | 90 | 95 | 50 | 95 | 95 | 98 | 90 | 98 | 98 | 97 | 86 | pest or weed control at 250 g/ha (barnyardgrass [5]): 97%; pest or weed control at 250 g/ha (sprangletop): 30%; pest or weed control at 250 g/ha (yellow nutsedge [6]): 97%; % NH4-N Remaining After 2 Weeks Incubation ([7]; 0.06 ppm): 69%; % NH4-N Remaining After 2 Weeks Incubation ([7]; 0.125 ppm): 77%; % NH4-N Remaining After 2 Weeks Incubation ([7]; 0.25 ppm): 82%; % NH4-N Remaining After 2 Weeks Incubation ([7]; 0.5 ppm): 86%
3 | Cc1cc(C)n2nc(S(=O)(=O)Nc3c(F)cccc3F)nc2n1 [Compound 25, 5,7-Dimethyl-N-(2,6-difluorophenyl)-1,2,4-triazolo[1,5-a]pyrimidine-2-sulfonamide] | 98 | 100 | 98 | 100 | 98 | 80 | 100 | 98 | 100 | 100 |  | 70 | 98 | 100 | 98 | 95 | 100 | 95 | 97 | 79 | pest or weed control at 250 g/ha (barnyardgrass [5]): 95%; pest or weed control at 250 g/ha (sprangletop): 0%; pest or weed control at 250 g/ha (yellow nutsedge [6]): 90%; % NH4-N Remaining After 2 Weeks Incubation ([7]; 0.06 ppm): 31%; % NH4-N Remaining After 2 Weeks Incubation ([7]; 0.125 ppm): 46%; % NH4-N Remaining After 2 Weeks Incubation ([7]; 0.25 ppm): 48%; % NH4-N Remaining After 2 Weeks Incubation ([7]; 0.5 ppm): 73%
4 | Cc1cc(C)n2nc(S(=O)(=O)Nc3c(C)cccc3Cl)nc2n1 [Compound 31] | 80 | 98 | 95 | 100 | 65 | 100 | 95 | 95 | 95 | 98 | 50 | 98 | 100 | 100 | 100 | 98 | 100 |  |  | 86 | pest or weed control at 125 g/ha (rice [4]; 0.125 Kg/Ha): 90%; pest or weed control at 125 g/ha (barnyardgrass [5]; 0.125 Kg/Ha): 97%; pest or weed control at 125 g/ha (sprangletop; 0.125 Kg/Ha): 45%; pest or weed control at 125 g/ha (yellow nutsedge [6]; 0.125 Kg/Ha): 97%; % NH4-N Remaining After 2 Weeks Incubation ([7]; 0.01 ppm): 34%; % NH4-N Remaining After 2 Weeks Incubation ([7]; 0.1 ppm): 66%; % NH4-N Remaining After 2 Weeks Incubation ([7]; 10 ppm): 91%
5 | COc1cc(C)n2nc(S(=O)(=O)Nc3c(Cl)cccc3Cl)nc2n1 [Compound 178] | 65 | 80 | 0 | 95 | 0 | 10 | 60 | 40 | 0 | 0 | 0 |  | 25 | 0 | 0 |  | 0 | 0 |  | 43 | pest or weed control at 2000 g/ha (rice [4]; 2.0 Kg/Ha): 50%; pest or weed control at 2000 g/ha (barnyardgrass [5]; 2.0 Kg/Ha): 20%; pest or weed control at 2000 g/ha (sprangletop; 2.0 Kg/Ha): 0%; pest or weed control at 2000 g/ha (yellow nutsedge [6]; 2.0 Kg/Ha): 90%; % NH4-N Remaining After 2 Weeks Incubation ([7]; 0.1 ppm): 0%; % NH4-N Remaining After 2 Weeks Incubation ([7]; 10 ppm): 91%
